Results on three molecules are retold here after patent US4263326A, “Antimicrobial compositions containing an octylphenone” (The Lion Dentrifice Co. Ltd., priority 1978, dated 1981).

One data set deals with Bacillus subtilis. Description: Growth prevention of Bacillus subtilis in tripticase soy broth culture media at 37° C. In kind it is cell-based. On the procedure:
For comparative purpose, three more culture media were prepared without addition of an antimicrobial agnet or with addition of 2% by weight of ethyl alcohol or 0.2% by weight of sorbic acid instead of the phenone compound and Bacillus subtilis was cultured therein similarly.

Another data set has as its system Aspergillus niger. On the set-up: key to the marks not given beside the values. As to conditions: 5%, 28° C. Here is the method:
(§1) The antifungal effect of the extract powder prepared in Example 2 was examined by adding it into potato-dextrose agar culture media in an amount of 0.2% by weight in which Aspergillus niger or Penicillium crysogenum were cultured at 28° C. For comparison, similar culture tests of the fungi were undertaken with the culture media in which no antimicrobial agent was added or 5% by weight of ethyl alcohol was added instead of the extract powder.
(§2) the results are summarized in Table 2 below, in which the marks "±" are for the cases where the growth of the molds was difficultly recognized, the marks "+" are for the cases where the growth of the molds could be recognized only of the hyphae though to a small extent, the mark "++" are for the cases where the growth could be recognized only of the hyphae to a considerable extent, and the marks "+++" and "++++" are for the cases where spores were formed.

In the next data set the test system is Penicillium crysogenum. Conditions: 5%, 28° C. Here is the method:
as §1, §2

The test system of a further data set is rats. Description: Oral LD50 in rats. In kind it is in vivo.
A further data set is described as follows: Oral LD50 in rats. In kind it is in vivo. Conditions: rat, in vivo, po.
Data set [1] is described as follows: Irritancy / physiological activity.

Like-named read-outs stand apart in the source and are kept apart here. A value given as a limit tells only on which side of the number the result lay.

`C/C=C/C=C/C(=O)O` [Sorbic acid, reference compound]: in the data set on Bacillus subtilis (0.2% by weight, tripticase soy broth), the “duration of antimicrobial effect” value is “about 4.5 hours”.
`CCO` [Ethyl alcohol]: the growth of mold entry in the data set with Aspergillus niger (10 days) is “++”; in the data set on Aspergillus niger (18 days) it was “++”; in the data set on Penicillium crysogenum (10 days), “±”; in the data set on Penicillium crysogenum (18 days) it was “++”.
With `O=C(CCCCCCCCc1cc(O)ccc1O)c1c(O)cccc1O` [2',6'-dihydroxy-9-(2,5-dihydroxyphenyl)octylphenone], in the data set with rats, the LD50 worked out at 2000 mg/kg. The molecule also registered an LD50 in the data set “Oral LD50 in rats” not below 2000 mg/kg. For the same molecule, in data set [1], the irritancy entry is reported as “non-irritant” and the physiological activity entry was “physiologically inactive”. The “duration of growth prevention” value in the data set on Bacillus subtilis (0.002% by weight, tripticase soy broth) is not below 7.5 h. Further, in the data set with Bacillus subtilis (0.002% vs sorbic acid 0.2%), the “effectiveness compared with sorbic acid” value is “more effective than sorbic acid”. Besides, the “antimicrobial effect compared with sorbic acid” value in the data set on Bacillus subtilis (concentration one hundredth of that of sorbic acid) is recorded as “as good as that of sorbic acid”.
